Test results: patent publication US20250243180A1, “TARGETED PROTEIN DEGRADATION” (Monte Rosa Therapeutics AG, priority 2023, published 2025)
Read-outs that look alike come from different tables or passages of the source.

What was measured:
CRBN-DDB1 = CRBN-DDB1 (Homo sapiens (Human), UniProt Q96SW2); experiment: Compound binding to CRBN by HTRF assay
Protocol: Compound activity was monitored in a Homogenous Time-Resolved Fluorescence (HTRF) assay using 1-[5-({2-[2-(2-{[2-(2,6-dioxopiperidin-3-yl)-1,3-dioxo-2,3-dihydro-1H-isoindol-4-yl]oxy}acetamido)ethoxy]ethyl}carbamoyl)pentyl]-3,3-dimethyl-2-[(1E,3E)-5-[(2E)-1,3,3-trimethyl-5-sulfo-2,3-dihydro-1H-indol-2-ylidene]penta-1,3-dien-1-yl]-3H-indol-1-ium-5-sulfonate as a fluorescent probe. Biochemical assays were conducted in Greiner white 384 well HiBase plates (Cat. No 784075-25) in 20 μL total volume. A one pot detection solution of CRBN-DDB1 (2.5 nM), Anti-His Terbium Cryptate Gold (1×, PerkinElmer Cat. #: 61HI2TLB), and Cy5-Thalidomide (100 nM, Tenova Cat.: T52461) was prepared in 20 mM HEPES, 20 mM NaCl, 0.2 mM TCEP, 0.2 mM EDTA, and 0.005% Tween20 was dispensed to each assay plate. Compounds were stored in dry, ambient temperatures at 10 mM. An 11-point, 1:3 dilution series was prepared from 10 mM stock concentrations in Echo-compatible LDV plates. 10 nL of each compound dilution series was dispensed into assays wells using an Echo 650 (Labcyte Inc. USA). 20 nL of 10 mM Lenalidomide was transferred into the active-control wells for the assay and 20 nL of DMSO was transferred into the neutral-control wells. The assay was then allowed to incubate for 30 min at ambient temperature after transferring compound. Plate measurements were taken on a Pherastar FSX (BMG Labtech, Germany) using the HTRF Red filter (Ex. 337 nm, em1: 620 nm, em2: 665 nm) (Flashes: 50, Integration time: 60-400 us, Z-height: 10 mm, Ratio-multiplier: 10,000). The HTRF signal was then subsequently normalized to the neutral and active controls. Analysis and EC50 values were derived using KNIME analytics (KNIME Zurich) transformation and fitting within Collaborative Drug Discovery (Collaborative Drug Discovery USA). Ki was derived from the geometric mean of the EC50 values using the Cheng-Prustoff transformation.

NEK7 = NEK7 (Homo sapiens (Human), UniProt Q8TDX7+Q96SW2); experiment: NEK7 NanoBiT degradation assay in Cal51 NEK7 NanoBiT cell line; assay type: cell-based; conditions: Cal51 NEK7 NanoBiT cells, 24 hours; for Dmax: CAL-51
Protocol: Cal51 NEK7 NanoBiT cell line was generated via CRISPR Knock-In of the HiBiT tag in NEK7 gene and stable infection with a lentivirus carrying LgBiT protein. The cell line was generated in house. For the experiment, cells were plated in 384-well white flat bottom plates (Corning, 3570BC) at 2500 cells per well using Multiflo (BioTek/Agilent) and in 25 μl volume in DMEM experimental medium: DMEM (DMEM, high glucose, HEPES, no phenol red (ThermoFisher Scientific, 21063029) supplemented with 10% FBS (Corning, 35-075-CV), 1% Penicillin/Streptomycin ((ThermoFisher Scientific, 15140-122), and 1% Endurazine (Nano-Glo Endurazine Live Cell Substrate (Promega, N2571)). Cells were incubated for 16 hours at 37° C., 5% CO2 before compound addition. For dose response determination, 2.5 nL of a compound at different concentrations (stock compound concentration range: 10 mM to 0.5 μM, final concentration range inside cell plate: 1 μM to 0.05 nM) were dispensed into the plate using an Echo® 650 liquid handling device (Backman Coulter/Labcyte). Cells were incubated at 37° C., 5% CO2 for 24 hours and then signal was read on a Pherastar FSX using “LUM plus” optic module with 4095 gain and measurement interval time 0.2 seconds.
Analysis was performed in Genedata Screener (Genedata, Basel, CH). Luminescence response (R) was calculated by the formula: response=100*(S−N)/(P−N) where S is the signal of the well, N and P the mean negative and positive control values respectively of the same plate. The luminescence response was then fitted in Genedata using a 4-parameter antagonist logistic fit (hill slope unconstrained, EC50>0, top/bottom unconstrained).

[1] = NEK7 degradation, read-out: NanoBiT Dmax
[2] = NEK7 degradation, read-out: NanoBiT DC50

Sequence of NEK7 (Q8TDX7 whole entry): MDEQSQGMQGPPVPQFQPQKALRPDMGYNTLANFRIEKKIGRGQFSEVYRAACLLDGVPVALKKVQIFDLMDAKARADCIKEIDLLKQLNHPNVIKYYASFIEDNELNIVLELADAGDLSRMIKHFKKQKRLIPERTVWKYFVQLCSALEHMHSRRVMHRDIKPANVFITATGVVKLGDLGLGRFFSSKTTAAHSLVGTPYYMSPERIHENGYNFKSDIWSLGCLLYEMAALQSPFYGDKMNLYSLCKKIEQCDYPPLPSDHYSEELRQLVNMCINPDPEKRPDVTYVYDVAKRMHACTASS
Sequence of NEK7 (Q96SW2 whole entry): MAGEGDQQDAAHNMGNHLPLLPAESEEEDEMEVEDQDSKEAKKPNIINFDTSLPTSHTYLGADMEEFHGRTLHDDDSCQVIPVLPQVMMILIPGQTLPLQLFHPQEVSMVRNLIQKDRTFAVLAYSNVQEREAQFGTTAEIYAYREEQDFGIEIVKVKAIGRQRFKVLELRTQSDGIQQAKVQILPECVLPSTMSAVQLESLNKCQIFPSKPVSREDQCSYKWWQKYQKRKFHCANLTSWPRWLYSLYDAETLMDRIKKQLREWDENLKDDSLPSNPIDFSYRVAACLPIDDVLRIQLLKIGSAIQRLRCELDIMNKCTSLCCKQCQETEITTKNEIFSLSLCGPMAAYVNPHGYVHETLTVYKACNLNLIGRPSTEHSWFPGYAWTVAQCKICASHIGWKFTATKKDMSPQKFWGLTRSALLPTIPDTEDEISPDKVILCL
Sequence of NEK7 (Q16531 2-1140 partner): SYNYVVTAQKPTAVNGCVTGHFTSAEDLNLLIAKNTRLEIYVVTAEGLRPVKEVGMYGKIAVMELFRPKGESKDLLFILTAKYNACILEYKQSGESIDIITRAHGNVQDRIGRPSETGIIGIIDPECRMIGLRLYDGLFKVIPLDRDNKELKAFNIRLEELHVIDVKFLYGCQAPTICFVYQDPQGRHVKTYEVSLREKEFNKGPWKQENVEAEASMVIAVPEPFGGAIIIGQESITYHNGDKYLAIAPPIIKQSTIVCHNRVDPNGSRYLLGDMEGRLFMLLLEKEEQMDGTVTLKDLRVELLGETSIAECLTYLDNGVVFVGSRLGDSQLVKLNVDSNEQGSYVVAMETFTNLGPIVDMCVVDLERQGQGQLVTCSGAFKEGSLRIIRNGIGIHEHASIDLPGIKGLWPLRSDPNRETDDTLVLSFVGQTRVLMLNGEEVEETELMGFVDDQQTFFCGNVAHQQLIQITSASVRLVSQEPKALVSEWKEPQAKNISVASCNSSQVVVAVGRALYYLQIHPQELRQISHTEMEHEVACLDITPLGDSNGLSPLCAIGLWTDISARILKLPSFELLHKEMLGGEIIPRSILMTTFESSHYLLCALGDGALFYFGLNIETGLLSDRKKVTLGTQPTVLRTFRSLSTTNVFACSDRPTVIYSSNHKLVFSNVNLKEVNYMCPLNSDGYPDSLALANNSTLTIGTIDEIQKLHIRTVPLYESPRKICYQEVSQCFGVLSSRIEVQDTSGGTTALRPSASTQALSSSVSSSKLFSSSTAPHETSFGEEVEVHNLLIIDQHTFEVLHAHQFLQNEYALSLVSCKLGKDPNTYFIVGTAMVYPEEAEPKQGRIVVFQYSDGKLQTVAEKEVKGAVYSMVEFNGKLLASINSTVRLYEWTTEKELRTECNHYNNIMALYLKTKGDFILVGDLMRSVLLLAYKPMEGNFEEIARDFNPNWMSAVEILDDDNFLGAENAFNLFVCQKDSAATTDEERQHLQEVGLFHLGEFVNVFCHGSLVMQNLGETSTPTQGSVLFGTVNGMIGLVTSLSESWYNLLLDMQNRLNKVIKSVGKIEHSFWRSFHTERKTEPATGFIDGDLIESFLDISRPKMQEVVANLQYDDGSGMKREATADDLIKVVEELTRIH
Sequence of CRBN-DDB1 (Q96SW2 whole entry): as the sequence (Q96SW2 whole entry) above
Sequence of CRBN-DDB1 (Q16531 whole entry partner): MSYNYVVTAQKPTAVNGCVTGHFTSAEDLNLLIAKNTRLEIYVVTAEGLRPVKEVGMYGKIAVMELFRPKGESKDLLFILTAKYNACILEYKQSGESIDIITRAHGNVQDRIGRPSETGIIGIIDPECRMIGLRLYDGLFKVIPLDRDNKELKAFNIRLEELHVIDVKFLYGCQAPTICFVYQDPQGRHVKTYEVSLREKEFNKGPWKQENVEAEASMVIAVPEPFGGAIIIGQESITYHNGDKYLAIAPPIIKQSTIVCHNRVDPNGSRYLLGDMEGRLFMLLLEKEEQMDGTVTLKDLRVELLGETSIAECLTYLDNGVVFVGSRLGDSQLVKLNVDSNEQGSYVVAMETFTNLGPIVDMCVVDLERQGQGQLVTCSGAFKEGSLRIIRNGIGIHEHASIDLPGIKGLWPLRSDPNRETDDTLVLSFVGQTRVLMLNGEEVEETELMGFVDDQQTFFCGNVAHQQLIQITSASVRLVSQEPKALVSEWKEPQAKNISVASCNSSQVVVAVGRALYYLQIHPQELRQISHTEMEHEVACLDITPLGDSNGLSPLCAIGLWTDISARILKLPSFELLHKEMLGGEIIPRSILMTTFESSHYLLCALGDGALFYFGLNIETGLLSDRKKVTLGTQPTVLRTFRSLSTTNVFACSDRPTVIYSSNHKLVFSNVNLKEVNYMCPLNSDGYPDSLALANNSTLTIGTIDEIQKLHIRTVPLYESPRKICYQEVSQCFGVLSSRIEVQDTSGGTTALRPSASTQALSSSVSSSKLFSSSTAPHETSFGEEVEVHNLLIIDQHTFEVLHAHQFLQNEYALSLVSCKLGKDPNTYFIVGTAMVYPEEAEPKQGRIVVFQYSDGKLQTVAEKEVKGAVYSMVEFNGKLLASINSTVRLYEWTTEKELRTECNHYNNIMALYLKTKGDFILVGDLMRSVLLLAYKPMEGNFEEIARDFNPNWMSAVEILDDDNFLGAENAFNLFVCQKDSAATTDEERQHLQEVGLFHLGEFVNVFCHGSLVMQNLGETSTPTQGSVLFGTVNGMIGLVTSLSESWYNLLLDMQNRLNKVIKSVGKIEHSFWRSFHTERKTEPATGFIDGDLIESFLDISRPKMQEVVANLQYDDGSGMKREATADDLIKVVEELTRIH

SMILES | EC50 (CRBN-DDB1) | EC50 (CRBN-DDB1; HTRF class, Cereblon binding) | Dmax (NEK7; read-out: NEK7 NanoBiT Dmax) | Dmax (NEK7; [1]) | DC50 (NEK7; read-out: NEK7 NanoBiT DC50) | DC50 (NEK7; [2])
CC(C)(C(=O)NCc1cc(Cl)c(C2CCC(=O)NC2=O)c(Cl)c1)c1ccc2nccnc2c1 (stereo not drawn) [Compound 49] | 0.07 µM | ≤ 0.1 µM | 99% | > 75% | 0.0001 µM | ≤ 0.1 µM
CC(C)(O)c1cnc(C(C)(C)C(=O)NCc2cc(Cl)c(C3CCC(=O)NC3=O)c(Cl)c2)cn1 (stereo not drawn) [Compound 238, N-(3,5-dichloro-4-(2,6-dioxopiperidin-3-yl)benzyl)-2-(5-(2-hydroxypropan-2-yl)pyrazin-2-yl)-2-methylpropanamide] | 0.17 µM | 0.1 to 1 µM | 63% | 50 to 75% | 0.153 µM | 0.1 to 1 µM
CC(C)(C(=O)NCc1cc(Cl)c(C2CCC(=O)NC2=O)c(Cl)c1)c1ncc(C(F)(F)F)cn1 (stereo not drawn) [Compound 175] | 0.28 µM | 0.1 to 1 µM | 94% | > 75% | 0.006 µM | ≤ 0.1 µM
COCc1nc(C(C)(C)C(=O)NCc2cc(Cl)c(C3CCC(=O)NC3=O)c(Cl)c2)ncc1C (stereo not drawn) [Compound 233, N-(3,5-dichloro-4-(2,6-dioxopiperidin-3-yl)benzyl)-2-(4-(methoxymethyl)-5-methylpyrimidin-2-yl)-2-methylpropanamide] | 0.19 µM | 0.1 to 1 µM | 74% | 50 to 75% | 0.029 µM | ≤ 0.1 µM
COc1cnc(C(C)(C)C(=O)NCc2cc(F)c(C3CCC(=O)NC3=O)c(Cl)c2)nc1 (stereo not drawn) [Compound 256] | 0.08 µM | ≤ 0.1 µM | 85% | > 75% | 0.011 µM | ≤ 0.1 µM
CC(C)(C(=O)NCc1cc(Cl)c(C2CCC(=O)NC2=O)c(Cl)c1)c1ccc2ncncc2c1 (stereo not drawn) [Compound 33] | 0.12 µM | 0.1 to 1 µM | 96% | > 75% | 0.002 µM | ≤ 0.1 µM
O=C1CCC(c2c(Cl)cc(CNC(=O)C3(c4ccc(F)cc4)CCOCC3)cc2Cl)C(=O)N1 (stereo not drawn) [Compound 142] | 0.05 µM | ≤ 0.1 µM | 94% | > 75% | 0.003 µM | ≤ 0.1 µM
CC(C)(C(=O)NCc1cc(Cl)c(C2CCC(=O)NC2=O)c(Cl)c1)c1ccc(C(N)=O)cc1F (stereo not drawn) [Compound 51] | 0.07 µM | ≤ 0.1 µM | 96% | > 75% | 0.001 µM | ≤ 0.1 µM
CC(C)(C(=O)NCc1cc(Cl)c(C2CCC(=O)NC2=O)c(Cl)c1)c1ccc(C(F)F)nn1 (stereo not drawn) [Compound 6, N-(3,5-dichloro-4-(2,6-dioxopiperidin-3-yl)benzyl)-2-(6-(difluoromethyl)pyridazin-3-yl)-2-methylpropanamide] | 0.21 µM | 0.1 to 1 µM | 91% | > 75% | 0.007 µM | ≤ 0.1 µM
Cc1ccc(C(C)(C)C(=O)NCc2cc(Cl)c(C3CCC(=O)NC3=O)c(Cl)c2)nn1 (stereo not drawn) [Compound 12] | 0.17 µM | 0.1 to 1 µM | 91% | > 75% | 0.008 µM | ≤ 0.1 µM
CC(F)(F)c1cnc(C(C)(C)C(=O)NCc2cc(Cl)c(C3CCC(=O)NC3=O)c(Cl)c2)cn1 (stereo not drawn) [Compound 263] | 0.1 µM | 0.1 to 1 µM | 90% | > 75% | 0.007 µM | ≤ 0.1 µM
CC(C)(C(=O)NCc1cc(Cl)c(C2CCC(=O)NC2=O)c(Cl)c1)c1ccnc(C(F)F)n1 (stereo not drawn) [Compound 156, N-(3,5-dichloro-4-(2,6-dioxopiperidin-3-yl)benzyl)-2-(2-(difluoromethyl)pyrimidin-4-yl)-2-methylpropanamide] | 0.33 µM | 0.1 to 1 µM | 54% | 50 to 75% | 0.435 µM | 0.1 to 1 µM
CC(C)(C(=O)NCc1cc(Cl)c(C2CCC(=O)NC2=O)c(Cl)c1)c1ccn2cnnc2c1 (stereo not drawn) [Compound 44] | 0.23 µM | 0.1 to 1 µM | 88% | > 75% | 0.038 µM | ≤ 0.1 µM
CC(C)(C(=O)NCc1cc(Cl)c(C2CCC(=O)NC2=O)c(Cl)c1)c1ccc2[nH]cnc2c1 (stereo not drawn) [Compound 69] | 0.06 µM | ≤ 0.1 µM | 97% | > 75% | 0.001 µM | ≤ 0.1 µM
Cc1cncc(C(C)(C)C(=O)NCc2cc(Cl)c(C3CCC(=O)NC3=O)c(Cl)c2)n1 (stereo not drawn) [Compound 176] | 0.05 µM | ≤ 0.1 µM | 60% | 50 to 75% | 0.116 µM | 0.1 to 1 µM
Cc1ncc(C(C)(C)C(=O)NCc2cc(F)c(C3CCC(=O)NC3=O)c(Cl)c2)o1 (stereo not drawn) [Compound 281] | 0.26 µM | 0.1 to 1 µM | 67% | 50 to 75% | 0.179 µM | 0.1 to 1 µM
Cc1ncc(C(C)(C)C(=O)NCc2cc(Cl)c(C3CCC(=O)NC3=O)c(Cl)c2)o1 (stereo not drawn) [Compound 282] | 0.11 µM | 0.1 to 1 µM | 78% | > 75% | 0.026 µM | ≤ 0.1 µM
CC(C)(C(=O)NCc1cc(Cl)c(C2CCC(=O)NC2=O)c(Cl)c1)c1cnc(CC(F)F)cn1 (stereo not drawn) [Compound 240] | 0.15 µM | 0.1 to 1 µM | 69% | 50 to 75% | 0.079 µM | ≤ 0.1 µM
CC(C)(C(=O)NCc1cc(Cl)c(C2CCC(=O)NC2=O)c(Cl)c1)C1CCCC1 (stereo not drawn) [Compound 213] | 0.08 µM | ≤ 0.1 µM | 78% | > 75% | 0.033 µM | ≤ 0.1 µM
